Source: PMC6269038, “A Novel Class of Selective Acetylcholinesterase Inhibitors: Synthesis and Evaluation of (E)-2-(Benzo[d]thiazol-2-yl)-3-heteroarylacrylonitriles” (Molecules, 2012)
Several values for one entry are separate records, joined by “and”; a condition that tells them apart may be missing. Equal entries are not always repeated.

How the values were obtained:
[1] = molecular target: T1, butyrylcholinesterase (BuChE) from equine serum (Equus caballus, UniProt P81908); test: BuChE inhibition, Ellman method, 96-well plates; type: biochemical; conditions: average from three independent experiments, ^c = IC50 greater than 0.5 mg/mL
T1 construct: an AChE/BuChE solution (50 μL, 0.25 unit/mL) from Electroporus electricus and equine serum, respectively; from tissue; host or cells: equine serum
T1 sequence (P81908 whole entry): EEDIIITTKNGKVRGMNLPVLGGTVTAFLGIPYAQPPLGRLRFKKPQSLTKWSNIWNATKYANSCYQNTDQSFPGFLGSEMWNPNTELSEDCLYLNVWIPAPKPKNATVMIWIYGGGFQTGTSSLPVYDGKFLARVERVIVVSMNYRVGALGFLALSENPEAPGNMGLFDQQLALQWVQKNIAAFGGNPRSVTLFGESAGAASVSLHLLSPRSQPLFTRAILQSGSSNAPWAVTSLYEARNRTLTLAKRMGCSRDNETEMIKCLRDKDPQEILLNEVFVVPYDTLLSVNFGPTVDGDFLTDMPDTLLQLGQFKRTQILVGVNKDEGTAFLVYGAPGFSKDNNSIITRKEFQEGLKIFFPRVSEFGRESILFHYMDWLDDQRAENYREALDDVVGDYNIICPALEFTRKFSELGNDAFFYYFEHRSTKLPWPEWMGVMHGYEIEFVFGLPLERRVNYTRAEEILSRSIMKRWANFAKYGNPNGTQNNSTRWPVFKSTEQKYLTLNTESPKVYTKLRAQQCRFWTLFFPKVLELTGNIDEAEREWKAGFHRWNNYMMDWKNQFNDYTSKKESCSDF

[2] = molecular target: AChE (Electrophorus electricus) (Electrophorus electricus, UniProt O42275); test: biochemical; conditions: for IC50: AChE from Electrophorus electricus, average from three independent experiments, ^c = IC50 greater than 0.5 mg/mL
Sequence of AChE (Electrophorus electricus) (O42275 24-633): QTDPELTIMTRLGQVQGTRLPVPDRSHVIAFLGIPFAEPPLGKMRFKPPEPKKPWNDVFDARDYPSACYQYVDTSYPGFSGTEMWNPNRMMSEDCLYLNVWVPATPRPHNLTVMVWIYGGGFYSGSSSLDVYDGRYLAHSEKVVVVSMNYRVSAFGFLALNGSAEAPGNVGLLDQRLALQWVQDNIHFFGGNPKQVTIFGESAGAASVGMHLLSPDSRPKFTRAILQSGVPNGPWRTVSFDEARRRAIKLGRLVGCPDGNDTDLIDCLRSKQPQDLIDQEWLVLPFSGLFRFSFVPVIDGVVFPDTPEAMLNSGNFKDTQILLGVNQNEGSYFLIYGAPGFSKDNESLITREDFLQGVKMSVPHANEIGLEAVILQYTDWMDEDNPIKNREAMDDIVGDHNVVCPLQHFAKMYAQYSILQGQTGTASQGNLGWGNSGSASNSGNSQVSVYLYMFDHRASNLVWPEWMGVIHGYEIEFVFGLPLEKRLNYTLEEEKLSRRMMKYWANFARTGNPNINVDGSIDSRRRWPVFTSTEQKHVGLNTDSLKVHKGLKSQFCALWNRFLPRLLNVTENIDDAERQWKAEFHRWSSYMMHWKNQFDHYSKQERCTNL

[3] = molecular target: AChE (Electrophorus electricus, UniProt O42275); test: Kinetic characterization of AChE inhibition (Lineweaver-Burk, Ellman's method); type: biochemical; conditions: substrate acetylthiocholine; for type of AChE inhibition: Lineweaver-Burk plots, AChE 0.02U; for Vmax: in presence of inhibitor, nonlinear regression
Sequence of AChE (O42275 24-633): as above
Procedure: The kinetics of this new class of AChE inhibitors were studied in detail using compounds 7f and 7g as examples. The nature of AChE inhibition, caused by these two compounds, was investigated by the graphical analysis of steady-state inhibition data (Figure 2A,B). […] The values of Km and Vmax were calculated by nonlinear regression according to studies by Abell et al., where Vmax was maintained at the same value while Km value was increased.
Figure 2 Lineweaver-Burk plot of AChE (0.02U) with substrate acetylthiocholine, in the absence and presence of inhibitors 7g (A), 7f (B).
Kinetic characterization of AChE was performed by means of Ellman’s method. […]. Enzyme kinetic characterization studies were performed under same incubation conditions as described above using acetylthiocholine as substrate and DTNB was used as chromophoric reagent. A parallel control with no inhibitor in the mixture was used for comparison. Each concentration was analyzed in triplicate; and Lineweaver-Burk (1/V vs. 1/[S]) plot was constructed using Sigma Plot 10.0 version software.

`N#C/C(=C\c1ccc(N2CCOCC2)cc1)c1nc2ccccc2s1` [7d, (E)-2-(Benzo[d]thiazol-2-yl)-3-(4-morpholin-4-ylphenyl)acrylonitrile] gave an IC50 [1] of over 1440 µM and an IC50 [2] of 504 ± 1 µM.
`N#C/C(=C\c1ccccn1)c1nc2ccccc2s1` [7k, (E)-2-(Benzo[d]thiazol-2-yl)-3-(pyridin-2-yl)acrylonitrile] was tested, and the IC50 [1] was over 1900 µM and the IC50 [2] was over 1900 µM.
Work on `N#C/C(=C\c1cc(-c2ccccc2)on1)c1nc2ccccc2s1` [7b, (E)-2-(Benzo[d]thiazol-2-yl)-3-(5-phenylisoxazol-3-yl)acrylonitrile] yielded an IC50 [1] of 1396.6 ± 0.8 µM and an IC50 [2] of 1179 ± 0.5 µM.
For `N#C/C(=C\c1cccnc1)c1nc2ccccc2s1` [7f, (E)-2-(Benzo[d]thiazol-2-yl)-3-(pyridin-3-yl)acrylonitrile], the IC50 [1] was over 2290 µM, the IC50 [2] was 155 µM and 103 µM and the “type of AChE inhibition” value [3] was “competitive inhibitors”. It also gave a Vmax [3] of 0.07078.
In the case of `N#C/C(=C\c1cc(-c2ccc(F)cc2)on1)c1nc2ccccc2s1` [7c, (E)-2-(Benzo[d]thiazol-2-yl)-3-[5-(4-fluorophenyl)isoxazol-3-yl]acrylonitrile], the IC50 [1] is reported as over 1440 µM and the IC50 [2] is reported as 699 ± 0.3 µM.
`N#C/C(=C\c1ccc(-c2ccc(Cl)cc2)o1)c1nc2ccccc2s1` [7g, (E)-2-(Benzo[d]thiazol-2-yl)-3-[5-(4-chlorophenyl)furan-2-yl]acrylonitrile] was tested, and the IC50 [1] was 474 µM, the IC50 [2] was 64 ± 0.6 µM and the “Selectivity for AChE (selectivity index)” value ([2]; defined as IC50 (BuChE)/IC50 (AChE)) was 7.40. The “type of AChE inhibition” value [3] was “competitive inhibitors” and the Vmax [3] was 0.2236.
In the case of `N#C/C(=C\c1ncc[nH]1)c1nc2ccccc2s1` [7e, (E)-2-(Benzo[d]thiazol-2-yl)-3-(1H-imidazol-2-yl)acrylonitrile], the IC50 [1] is reported as over 1980 µM and the IC50 [2] is reported as 303 ± 0.8 µM.
`N#C/C(=C\c1ccc(-c2ccccc2)cc1)c1nc2ccccc2s1` [7j, (E)-2-(Benzo[d]thiazol-2-yl)-3-(1,1'-biphenyl-4-yl)acrylonitrile] was tested, and the IC50 [1] was 1273 ± 0.7 µM and the IC50 [2] was over 1480 µM.
Work on `N#C/C(=C\c1ccco1)c1nc2ccccc2s1` [7i, (E)-2-(Benzo[d]thiazol-2-yl)-3-(2-furyl)acrylonitrile] yielded an IC50 [1] of 1883 ± 0.8 µM and an IC50 [2] of over 1980 µM.
`Cc1nn(-c2ccccc2)c(Cl)c1/C=C(\C#N)c1nc2ccccc2s1` [7h, (E)-2-(Benzo[d]thiazol-2-yl)-3-(5-chloro-3-methyl-1-phenyl-1H-pyrazol-4-yl)acrylonitrile] showed an IC50 [1] of over 1330 µM and an IC50 [2] of over 1330 µM.
In the case of `Cc1cc(/C=C(\C#N)c2nc3ccccc3s2)no1` [7a, (E)-2-(Benzo[d]thiazol-2-yl)-3-(5-methylisoxazol-3-yl)acrylonitrile], the IC50 [1] is reported as over 1870 µM and the IC50 [2] is reported as 1274 ± 0.7 µM.
